Where two headings read alike, the source gives them in different places.
How the values were obtained:
Assay type in all cases: in vivo, human
[1] = Plasma pharmacokinetics of LMP744, non-compartmental; conditions: for half-life / AUC(0-inf) / AUC(0-t) / Cmax / Tmax: human, plasma, intravenous
Description: Blood was collected during cycle 1 in the LMP744 study on C1D1 at the end of infusion (EOI), then again at 0.25, 0.5, 1, 2, 4, and 6 h after EOI. Blood was also collected prior to infusion and at EOI on days 2–5 during cycle 1, then again at 1 week (168 h) after C1D1 EOI. Samples were collected in EDTA tubes with 2 mL of blood per sample. Samples were centrifuged and plasma was stored at − 70 °C. Samples were analyzed using a validated LC–MS or LC–MS/MS method for each IIQ as previously described. Plasma-time data were analyzed using WinNonlin (Pharsight, Mountain View, CA). AUC values were calculated by non-compartmental analysis and end-of-infusion concentrations were measured on days 1 and 5 of cycle 1. Sample collection and analysis of LMP776 pharmacokinetics were performed as previously described.

[2] = test system: γH2AX; experiment: qIF of paired tumor biopsies: nuclear γH2AX
Description: The LMP744 protocol collected pre-treatment (baseline) and on-treatment paired biopsies from patients in the expansion cohort. Core needle tumor biopsies (18-gauge) were collected and flash-frozen at point of collection per NCI SOPs (https://dctd.cancer.gov/ResearchResources/biomarkers/docs/par/SOP340507_Biopsy_Frozen.pdf) as described to preserve labile post-translational modifications such as phosphorylation. Biopsy pairs were thawed in formalin, fixed in paraffin embedded together with control tissues following NCI SOP340550 (https://dctd.cancer.gov/ResearchResources/biomarkers/DDR3/SOP340550_Biopsy_Section_Testis_Jejunum_Controls.pdf). TOP1 and TOP1cc were measured with a cocktail containing custom-conjugated rabbit monoclonal antibody anti-TOP1-DIG (Abcam, EPR5376 (2)) and mouse monoclonal antibody anti-TOP1cc (clone 1.1A [34, 35], EMD Millipore) that were detected with reporter secondary antibodies AlexaFluor-647 IgG fraction monoclonal mouse anti-digoxin (Jackson ImmunoResearch) and goat/anti-mouse AlexaFluor-488, respectively. Phosphorylated KAP1 (pKAP1, phosphorylated at S824) was measured using custom-conjugated pKAP1-pS824-DNP (Abcam, EPR5248) and detected with AlexaFluor-488 conjugated with anti-dinitrophenyl-KLH rabbit IgG Antibody Fraction (DNP-488, ThermoFisher). […] TOP1, γH2AX, pNBS1, and pKAP1 were measured as the percentage of DAPI-stained tumor cell nuclear area that was positive for the biomarker (% NAP); RAD51 [19] and TOP1cc was measured as a function of the percentage of nuclei with ≥ 5 foci (RAD51) or ≥ 19 foci (TOP1cc). Apoptosis was measured using a validated IFA of tumor cells positive for both cCasp3 blebbing in the cytoplasm and γH2AX in the nucleus. Anti-SLFN11 rabbit monoclonal antibody (Cell Signaling Technology, clone D8W1B) was detected by immunohistochemistry (IHC) using Bond Polymer Detection kit (Leica) and scanned in 20X widefield Aperio (Leica), and the distribution of staining intensity of tumor cell nuclei graded as 0, 1 + , 2 + or 3 + was converted into an H-score. […]

[3] = test system: pKAP1; experiment: qIF of paired tumor biopsies: nuclear pKAP1; conditions: 6 patients at MTD, C1D2
Description: The LMP744 protocol collected pre-treatment (baseline) and on-treatment paired biopsies from patients in the expansion cohort. Core needle tumor biopsies (18-gauge) were collected and flash-frozen at point of collection per NCI SOPs (https://dctd.cancer.gov/ResearchResources/biomarkers/docs/par/SOP340507_Biopsy_Frozen.pdf) as described to preserve labile post-translational modifications such as phosphorylation. Biopsy pairs were thawed in formalin, fixed in paraffin embedded together with control tissues following NCI SOP340550 (https://dctd.cancer.gov/ResearchResources/biomarkers/DDR3/SOP340550_Biopsy_Section_Testis_Jejunum_Controls.pdf). TOP1 and TOP1cc were measured with a cocktail containing custom-conjugated rabbit monoclonal antibody anti-TOP1-DIG (Abcam, EPR5376 (2)) and mouse monoclonal antibody anti-TOP1cc (clone 1.1A [34, 35], EMD Millipore) that were detected with reporter secondary antibodies AlexaFluor-647 IgG fraction monoclonal mouse anti-digoxin (Jackson ImmunoResearch) and goat/anti-mouse AlexaFluor-488, respectively. Phosphorylated KAP1 (pKAP1, phosphorylated at S824) was measured using custom-conjugated pKAP1-pS824-DNP (Abcam, EPR5248) and detected with AlexaFluor-488 conjugated with anti-dinitrophenyl-KLH rabbit IgG Antibody Fraction (DNP-488, ThermoFisher). […]

## COc1cc2c3c(n(CCCNCCO)c(=O)c2cc1OC)-c1cc2c(cc1C3=O)OCO2 [LMP744]
[1]; DL1, 6 mg/m2, n=1
  Cl: 42.3 L/h/m2
  Vss: 1033.0 L/m2
  AUC(0-inf): 142 ng·h/mL
  AUC(0-t): 91.7 ng·h/mL
  Cmax: 48.4 ng/mL
  Tmax: 1 h
[1]; DL2, 12 mg/m2, n=1
  Cl: 74.0 L/h/m2
  Vss: 1369.0 L/m2
  AUC(0-inf): 162 ng·h/mL
  AUC(0-t): 117 ng·h/mL
  Cmax: 69.6 ng/mL
  Tmax: 1 h
[1]; DL3, 24 mg/m2, n=3
  Cl: 77.9 (11.2) L/h/m2
  Vss: 1312.7 L/m2
  AUC(0-inf): 313 ng·h/mL
  AUC(0-t): 234 ng·h/mL
  Cmax: 78.1 ng/mL
  Tmax: 1.6 h
[1]; DL4, 48 mg/m2, n=1
  Cl: 72.7 L/h/m2
  Vss: 828.0 L/m2
  AUC(0-inf): 800 ng·h/mL
  AUC(0-t): 632 ng·h/mL
  Cmax: 446 ng/mL
  Tmax: 1 h
[1]; DL5, 96 mg/m2, n=1
  Cl: 51.7 L/h/m2
  Vss: 836.6 L/m2
  AUC(0-inf): 1860 ng·h/mL
  AUC(0-t): 1390 ng·h/mL
  Cmax: 433 ng/mL
  Tmax: 1 h
[1]; DL6 (MTD), 190 mg/m2, n=16
  Cl: 59.1 (26.6) L/h/m2
  Vss: 845.0 L/m2
  AUC(0-inf): 4650 ng·h/mL
  AUC(0-t): 3770 ng·h/mL
  Cmax: 1570 ng/mL
  Tmax: 1 h
[1]; DL7, 260 mg/m2, n=10
  Cl: 73.8 (35.4) L/h/m2
  Vss: 867.8 L/m2
  AUC(0-inf): 4100 ng·h/mL
  AUC(0-t): 3580 ng·h/mL
  Cmax: 1500 ng/mL
  Tmax: 1 h
[1]; 6 mg/m2, DL1, 6 mg/m2, n=1, read-out: t1/2 (converted)
  half-life: 23.4 h
[1]; 12 mg/m2, DL2, 12 mg/m2, n=1, read-out: t1/2 (converted)
  half-life: 19.1 h
[1]; 24 mg/m2, DL3, 24 mg/m2, n=3, read-out: t1/2 (converted)
  half-life: 14 h
[1]; 48 mg/m2, DL4, 48 mg/m2, n=1, read-out: t1/2 (converted)
  half-life: 15.5 h
[1]; 96 mg/m2, DL5, 96 mg/m2, n=1, read-out: t1/2 (converted)
  half-life: 16.2 h
[1]; 190 mg/m2, DL6 (MTD), 190 mg/m2, n=16, read-out: t1/2 (mean half-life) (converted)
  half-life: 13.6 h
[1]; 190 mg/m2, MTD (DL6, 190 mg/m^2, n = 16), read-out: Half-life, range
  half-life: 7.2 to 23.4 h
[1]; 190 mg/m^2, patient 8, Hodgkin lymphoma, read-out: Longest drug half-life measured in this study (converted)
  half-life: 23.4 h
[1]; 260 mg/m2, DL7, 260 mg/m2, n=10, read-out: t1/2 (converted)
  half-life: 10.9 h
[1]; in vivo
  Dependence of half-life on dose: did not vary with dose level
  Systemic exposure (AUC) versus dose level: increased linearly with dose level
[2]; 6 patients at MTD, P = 0.1715
  γH2AX, cohort mean treatment effect: overall lack of treatment effect within the cohort
[2]; patient 29 (SCLC, cPR) only, MTD, C1D2 2–4 h after dosing
  Nuclear γH2AX in tumor cells on treatment: above 4 % NAP
[2]; patient with cPR
  Pharmacodynamic responses in tumor biopsies: increased RAD51, phosphorylated KAP1 (pKAP1), γH2AX, and cleaved caspase-3 (cCasp3)
[3]
  Nuclear pKAP1: increased only in patient 29

Reference: paper PMC12122562, “Phase 1 studies of the indenoisoquinolines LMP776 and LMP744 in patients with solid tumors and lymphomas” (Cancer Chemotherapy and Pharmacology, 2025)
